Laboratory results as given in patent US20060069132A1, “Azolecarboxamide herbicides” (priority 2004, published 2006).

Experiments:
[1] = test system: common ragweed; assay: Test C pre-/postemergence herbicide test; type: in vivo, Ambrosia elatior; set-up: key to Plant response rating, Ragweed: 0 = no effect, 100 = complete control; conditions: for Ragweed plant response rating: 500 g ai/ha
Excerpt: (§1) Seeds of plant species selected from bermudagrass (Cynodon dactylon (L.) Pers.), Surinam grass (Urochloa decumbens (Staph) R. D. Webster, previously named Brachiaria decumbens Stapf), cocklebur (Xanthium strumarium L.), corn (Zea mays L.), large crabgrass (Digitaria sanguinalis (L.) Scop.), woolly cupgrass (Eriochloa villosa (Thunb.) Kunth), giant foxtail (Setaria faberi Herrm.), goosegrass (Eleusine indica (L.) Gaertn.), johnsongrass (Sorghum halepense (L.) Pers.), kochia (Kochia scoparia (L.) Schrad.), lambsquarters (Chenopodium album L.), morningglory (Ipomoea coccinea L.), eastern black nightshade (Solanum ptycanthum Dunal), yellow nutsedge (Cyperus esculentus L.), pigweed (Amaranthus retroflexus L.), common ragweed (Ambrosia elatior L.), soybean (Glycine max (L.) Merr.), common (oilseed) sunflower (Helianthus annuus L.) and velvetleaf (Abutilon theophrasti Medik.) were planted and treated preemergence with test chemicals formulated in a non-phytotoxic solvent mixture which included a surfactant.
(§2) At the same time, plants selected from these crop and weed species and also winter barley (Hordeum vulgare L.), blackgrass (Alopecurus myosuroides Huds.), canarygrass (Phalaris minor Retz.), chickweed (Stellaria media (L.) Vill.), downy bromegrass (Bromus tectorum L.), green foxtail (Setaria viridis (L.) Beauv.), Italian ryegrass (Lolium multiflorum Lam.), wheat (Triticum aestivum L.), wild oat (Avenafatua L.) and windgrass (Apera spica-venti (L.) Beauv.) were treated with postemergence applications of some of the test chemicals formulated in the same manner. Plants ranged in height from 2 to 18 cm (1- to 4-leaf stage) for postemergence treatments. Plant species in the flooded paddy test consisted of rice (Oryza sativa), smallflower umbrella sedge (Cyperus difformis L.), ducksalad (Heteranthera limosa (Sw.) Willd.) and barnyardgrass (Echinochloa crus-galli (L.) Beauv.) grown to the 2-leaf stage for testing. Treated plants and controls were maintained in a greenhouse for 12 to 14 days, after which time all species were compared to controls and visually evaluated. Plant response ratings, summarized in Table C, are based on a scale of 0 to 100 where 0 is no effect and 100 is complete control. A dash (-) response means no test result.

[2] = test system: cocklebur; assay: Test C pre-/postemergence herbicide test; type: in vivo, Xanthium strumarium; conditions: for Cocklebur plant response rating: 500 g ai/ha
Excerpt: as §1, §2

[3] = test system: barnyardgrass; assay: Test A pre-/postemergence herbicide test; type: in vivo, Echinochloa crus-galli
How it was run: (§3)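 Both application timings were run together: directed soil spray over freshly planted seeds in sandy loam, and runoff spray onto 2–10 cm seedlings. Evaluation after ~10 days in greenhouse used a 0–100 visual scale versus untreated controls.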

[4] = test system: velvetleaf; assay: Test A pre-/postemergence herbicide test; type: in vivo, Abutilon theophrasti
How it was run: as §3

[5] = test system: velvetleaf; assay: Test C pre-/postemergence herbicide test; type: in vivo, Abutilon theophrasti; conditions: for Velvetleaf plant response rating: 500 g ai/ha
Excerpt: as §1, §2

[6] = test system: large crabgrass; assay: Test C pre-/postemergence herbicide test; type: in vivo, Digitaria sanguinalis; conditions: for Crabgrass, Large plant response rating: 500 g ai/ha
Excerpt: as §1, §2

[7] = test system: corn; assay: Test C pre-/postemergence herbicide test; type: in vivo, Zea mays; conditions: for Corn plant response rating: 500 g ai/ha
Excerpt: as §1, §2

[8] = test system: redroot pigweed; assay: Test A pre-/postemergence herbicide test; type: in vivo, Amaranthus retroflexus
How it was run: as §3

[9] = test system: yellow nutsedge; assay: Test C pre-/postemergence herbicide test; type: in vivo, Cyperus esculentus; conditions: for Nutsedge, Yellow plant response rating: 500 g ai/ha
Excerpt: as §1, §2

[10] = test system: barnyardgrass; assay: Test C flooded paddy test; type: in vivo, Echinochloa crus-galli; conditions: for Plant response rating, Barnyardgrass: 500 g ai/ha, visual rating after 12 to 14 days
How it was run: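 Weeds and wheat were sprayed after emergence, at a height of 2 to 18 cm (1–4 leaves), and paddy barnyardgrass was flooded and treated at two leaves. Assessment took place 12–14 days later in the greenhouse on a 0-to-100 visual control scale. A dash means no result was obtained.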

[11] = test system: ducksalad; assay: Test C flooded paddy test; type: in vivo, Heteranthera limosa; conditions: for Plant response rating, Ducksalad: 500 g ai/ha, visual rating after 12 to 14 days
[12] = test system: rice; assay: Test C flooded paddy test; type: in vivo, Oryza sativa; conditions: for Plant response rating, Rice: 500 g ai/ha, visual rating after 12 to 14 days
How it was run: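 Injury scored visually against controls on a 0 (no effect) to 100 (complete control) scale, 12 to 14 days after treatment in greenhouse. Flooded paddy plants treated at 2-leaf stage; postemergence plants at 1- to 4-leaf stage, 2 to 18 cm tall.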

[13] = Postemergence, 250 g ai/ha, scale 0 to 100, 0 no effect, 100 complete control
[14] = postemergence, 125 g ai/ha, scale 0 to 100
[15] = postemergence, 62 g ai/ha, scale 0 to 100
[16] = Postemergence, 500 g ai/ha, 0 to 100 scale, 0 no effect, 100 complete control
[17] = Postemergence, 2000 g ai/ha, 0 to 100 scale, 0 no effect, 100 complete control
[18] = Preemergence, 500 g ai/ha, visual rating, 0 to 100 scale (0 no effect, 100 complete control)
[19] = Preemergence, 2000 g ai/ha, 0 to 100 scale, 0 no effect, 100 complete control
[20] = Preemergence, 2000 g ai/ha, visual rating, 0 to 100 scale (0 no effect, 100 complete control)
[21] = 62 g ai/ha, scale 0 to 100 (0 no effect, 100 complete control)
[22] = 125 g ai/ha, scale of 0 to 100, 0 is no effect, 100 is complete control
[23] = 250 g ai/ha, scale of 0 to 100, 0 is no effect, 100 is complete control
[24] = scale 0 to 100 (0 no effect, 100 complete control)
[25] = preemergence, 500 g ai/ha, visual injury, 0 to 100 scale (0 no effect, 100 complete control)
[26] = 125 g ai/ha, scale 0 to 100 (0 no effect, 100 complete control)

C=CCOC(=O)c1cccc(NC(=O)c2cc(C(C)(C)C)nn2CC)c1 [Compound 85]
Ragweed plant response rating ([1]; Postemergence, scale 0 to 100): 60 | Plant response rating, Ragweed [1, 13]: 40 | Plant response rating, Ragweed [1, 14]: 10 | Plant response rating, Ragweed [1, 15]: 10 | Cocklebur plant response rating ([2]; Postemergence, scale 0 to 100): 100 | Plant response rating, Cocklebur [2, 13]: 100 | Plant response rating, Cocklebur [2, 14]: 80 | Plant response rating, Cocklebur [2, 15]: 20 | Barnyardgrass plant response rating [3, 16]: 20 | Plant response rating, Barnyardgrass [3, 17]: 25 | Barnyardgrass plant response rating [3, 18]: 0 | Barnyardgrass plant response rating [3, 19]: 0 | Velvetleaf plant response rating [4, 16]: 30 | Plant response rating, Velvetleaf [4, 17]: 20 | Velvetleaf plant response rating [4, 18]: 0 | Velvetleaf plant response rating [4, 20]: 0 | Velvetleaf plant response rating ([5]; Postemergence, scale 0 to 100): 85 | Plant response rating, Velvetleaf [5, 13]: 80 | Plant response rating, Velvetleaf [5, 14]: 75 | Plant response rating, Velvetleaf [5, 15]: 60 | Crabgrass, Large plant response rating ([6]; Postemergence, scale 0 to 100): 40 | Plant response rating, Crabgrass, Large [6, 13]: 10 | Plant response rating, Crabgrass, Large [6, 14]: 5 | Plant response rating, Crabgrass, Large [6, 15]: 0 | Corn plant response rating ([7]; Postemergence, scale 0 to 100): 45 | Plant response rating, Corn [7, 13]: 35 | Plant response rating, Corn [7, 14]: 30 | Plant response rating, Corn [7, 15]: 30 | Pigweed plant response rating [8, 16]: 75 | Plant response rating, Pigweed [8, 17]: 70 | Pigweed plant response rating [8, 18]: 0 | Pigweed plant response rating [8, 19]: 5 | Nutsedge, Yellow plant response rating ([9]; Postemergence, scale 0 to 100): 40 | Plant response rating, Nutsedge, Yellow [9, 13]: 20 | Plant response rating, Nutsedge, Yellow [9, 14]: 20 | Plant response rating, Nutsedge, Yellow [9, 15]: 10

C#CCOC(=O)c1cccc(NC(=O)c2cc(C(C)(C)C)nn2CC)c1 [Compound 84]
Ragweed plant response rating ([1]; Postemergence, scale 0 to 100): 0 | Plant response rating, Ragweed [1, 13]: 0 | Plant response rating, Ragweed [1, 14]: 0 | Plant response rating, Ragweed [1, 15]: 0 | Cocklebur plant response rating ([2]; Postemergence, scale 0 to 100): 0 | Plant response rating, Cocklebur [2, 13]: 0 | Plant response rating, Cocklebur [2, 14]: 0 | Plant response rating, Cocklebur [2, 15]: 0 | Barnyardgrass plant response rating [3, 16]: 15 | Plant response rating, Barnyardgrass [3, 17]: 10 | Barnyardgrass plant response rating [3, 18]: 0 | Barnyardgrass plant response rating [3, 19]: 0 | Velvetleaf plant response rating [4, 16]: 20 | Plant response rating, Velvetleaf [4, 17]: 20 | Velvetleaf plant response rating [4, 18]: 0 | Velvetleaf plant response rating [4, 20]: 0 | Velvetleaf plant response rating ([5]; Postemergence, scale 0 to 100): 0 | Plant response rating, Velvetleaf [5, 13]: 0 | Plant response rating, Velvetleaf [5, 14]: 0 | Plant response rating, Velvetleaf [5, 15]: 0 | Crabgrass, Large plant response rating ([6]; Postemergence, scale 0 to 100): 50 | Plant response rating, Crabgrass, Large [6, 13]: 0 | Plant response rating, Crabgrass, Large [6, 14]: 0 | Plant response rating, Crabgrass, Large [6, 15]: 0 | Corn plant response rating ([7]; Postemergence, scale 0 to 100): 0 | Plant response rating, Corn [7, 13]: 0 | Plant response rating, Corn [7, 14]: 0 | Plant response rating, Corn [7, 15]: 0 | Pigweed plant response rating [8, 16]: 50 | Plant response rating, Pigweed [8, 17]: 45 | Pigweed plant response rating [8, 18]: 0 | Pigweed plant response rating [8, 19]: 0 | Nutsedge, Yellow plant response rating ([9]; Postemergence, scale 0 to 100): 0 | Plant response rating, Nutsedge, Yellow [9, 13]: 0 | Plant response rating, Nutsedge, Yellow [9, 14]: 0 | Plant response rating, Nutsedge, Yellow [9, 15]: 0

CCn1nc(C(C)(C)C)cc1C(=O)Nc1cccc(C(=O)OC)c1 [Compound 81]
Plant response rating, Ragweed [1, 13]: 60 | Plant response rating, Ragweed [1, 14]: 60 | Plant response rating, Ragweed [1, 15]: 40 | Plant response rating, Cocklebur [2, 13]: 60 | Plant response rating, Cocklebur [2, 14]: 55 | Plant response rating, Cocklebur ([2]; postemergence, 31 g ai/ha, scale 0 to 100): 50 | Plant response rating, Cocklebur [2, 15]: 55 | Plant response rating, Velvetleaf [5, 13]: 60 | Plant response rating, Velvetleaf [5, 14]: 55 | Plant response rating, Velvetleaf [5, 15]: 55 | Barnyardgrass plant response rating [10, 21]: 0 | Barnyardgrass plant response rating [10, 22]: 0 | Barnyardgrass plant response rating [10, 23]: 0 | Plant response rating, Barnyardgrass [10, 24]: 30 | Plant response rating, Crabgrass, Large [6, 13]: 30 | Plant response rating, Crabgrass, Large [6, 14]: 10 | Plant response rating, Crabgrass, Large [6, 15]: 5 | Ducksalad plant response rating [11, 21]: 0 | Ducksalad plant response rating [11, 22]: 0 | Ducksalad plant response rating [11, 23]: 20 | Plant response rating, Ducksalad [11, 24]: 20 | Plant response rating, Corn [7, 13]: 40 | Plant response rating, Corn [7, 14]: 40 | Plant response rating, Corn [7, 15]: 40 | Rice plant response rating [12, 21]: 20 | Rice plant response rating [12, 22]: 20 | Rice plant response rating [12, 23]: 30 | Plant response rating, Rice [12, 24]: 40 | Plant response rating, Nutsedge, Yellow [9, 13]: 0 | Plant response rating, Nutsedge, Yellow [9, 14]: 0 | Plant response rating, Nutsedge, Yellow [9, 15]: 0

CCn1nc(C(C)(C)C)cc1C(=O)Nc1cccc(OC(C)C)c1 [Compound 273]
Barnyardgrass plant response rating [3, 16]: 55 | Plant response rating, Barnyardgrass [3, 17]: 75 | Barnyardgrass plant response rating [3, 20]: 95 | Barnyardgrass plant response rating [3, 25]: 70 | Velvetleaf plant response rating [4, 16]: 90 | Plant response rating, Velvetleaf [4, 17]: 95 | Velvetleaf plant response rating [4, 20]: 75 | Velvetleaf plant response rating [4, 25]: 60 | Barnyardgrass plant response rating [10, 21]: 20 | Barnyardgrass plant response rating [10, 26]: 40 | Barnyardgrass plant response rating [10, 23]: 60 | Plant response rating, Barnyardgrass [10, 24]: 70 | Ducksalad plant response rating ([11]; 62 g ai/ha, scale 0 to 100): 20 | Ducksalad plant response rating [11, 26]: 50 | Ducksalad plant response rating [11, 23]: 75 | Plant response rating, Ducksalad [11, 24]: 75 | Pigweed plant response rating [8, 16]: 100 | Plant response rating, Pigweed [8, 17]: 100 | Pigweed plant response rating [8, 20]: 100 | Pigweed plant response rating [8, 25]: 100 | Rice plant response rating ([12]; 62 g ai/ha, scale 0 to 100): 10 | Rice plant response rating [12, 26]: 40 | Rice plant response rating [12, 23]: 50 | Plant response rating, Rice [12, 24]: 60
